The source of these data is ChEMBL document CHEMBL3351504, “Discovery and structure-based optimization of adenain inhibitors” (ACS Med Chem Lett, 2014).

Molecules are shown by their SMILES. Values after ≈ are worked out from the molar mass of the structure shown.

Series [1] in a line: High throughput equilibrium solubility at pH 6.8. The format is physicochemical. The conditions noted are these: buffer.
The nature of series [2]: Permeability from apical to basolateral side in human Caco2 cells. The format is ADME, cell-based. The conditions noted are these: Caco-2, read-out: permeability. On the technique in general: Caco-2 monolayers are a common model of the intestinal barrier.
Series [3] in a line: Permeability from basolateral to apical side in human Caco2 cells. The conditions noted are these: Caco-2, read-out: permeability. It counts as ADME, cell-based.
The nature of series [4]: Inhibition of human adenovirus serotype 8 adenain protease expressed in Escherichia coli […] (DE3) using Ac-WLRGG*ARC(PT14)-NH2 as substrate by FLT assay. Also noted: species or system Human adenovirus 8.
Series [5] can be described thus: Inhibition of human adenovirus serotype 5 adenain protease expressed in Escherichia coli […] (DE3) using Ac-WLRGG*ARC(PT14)-NH2 as substrate by FLT assay. Also noted: species or system Human adenovirus 5.
For the next series, the system named is Human adenovirus 5. As to the kind of experiment: Antiviral activity against human adenovirus 5 infected in HEK293 cells assessed as reduction in viral induced cytopathogenicity incubated for 5 days by Celltiter-Glo luminescent cell viability assay. It counts as functional, organism-based. The conditions noted are these: Human mastadenovirus C, HEK293, 120 h. On the technique in general: Cytopathic effects are the visible damage that an infection or toxin causes in cultured cells.

Series [6] in a line: Inhibition of adenovirus adenain. Also noted: species or system unidentified adenovirus.

In the case of `CC[C@H](C(=O)N[C@H](C(=O)NCC(=O)NCC#N)C(C)(C)C)c1cc(Cl)cc(Cl)c1`, the thermodynamic solubility (as a rule, solubility found after equilibrating the solid with the medium) in series [1] was 5 µM (≈ 2.21 µg/mL). Besides, in series [2], the Papp A→B is 7.3 ×10⁻⁶ cm/s. Further, the Papp B→A in series [3] stood at 12.2 ×10⁻⁶ cm/s. Also, the IC50 (in general, the concentration at which inhibition is half-maximal) in series [4] turned out to be 20 nM; in series [5] it was 10 nM. Besides, in the series with Human adenovirus 5, the EC50 – broadly, the concentration needed to bring the measured effect to its halfway point – came out at 2500 nM.
On to `CC[C@H](C)[C@H](NC(=O)[C@@H](O)c1cc(Cl)cc(Cl)c1)C(=O)NCc1ccnc(C#N)n1`, for which the thermodynamic solubility in series [1] came out at 236 µM (≈ 106 µg/mL). Also, the Papp A→B in series [2] stood at 18.3 ×10⁻⁶ cm/s. Besides, the Papp B→A in series [3] was determined as 11.3 ×10⁻⁶ cm/s. The IC50 in series [4] worked out at 20 nM; in series [5] it was 8 nM. In addition, the EC50 in the series on Human adenovirus 5 is 7200 nM.
Take `COC[C@H](NC(=O)Cc1cc(Cl)cc(Cl)c1)C(=O)NCc1ccnc(C#N)n1`: the thermodynamic solubility in series [1] was 52 µM (≈ 22 µg/mL). The Papp A→B in series [2] was 23.2 ×10⁻⁶ cm/s. The Papp B→A in series [3] was 14.8 ×10⁻⁶ cm/s. The IC50 came out at 4 nM in series [4] and 2 nM in series [5]. The EC50 with Human adenovirus 5 came out at 3200 nM.
For `C[C@@H](O)[C@H](NC(=O)Cc1cc(Cl)cc(Cl)c1)C(=O)NCc1ccnc(C#N)n1`, the thermodynamic solubility in series [1] worked out at 556 µM (≈ 235 µg/mL). In series [2], the Papp A→B turned out to be 12.2 ×10⁻⁶ cm/s. In addition, the Papp B→A in series [3] was 14.1 ×10⁻⁶ cm/s. Moreover, the results for the IC50 in series [4] and in series [5] were 3 nM and 2 nM, respectively. Besides, the EC50 in the series on Human adenovirus 5 amounted to 1200 nM.
Regarding `CS(=O)(=O)N[C@H](C(=O)N[C@@H](Cc1ccccc1)C(=O)NCC(=O)NCC#N)c1cccc(Cl)c1`, the solubility (thermodynamic) in series [1] stood at 170 µM (≈ 86 µg/mL). The Papp A→B in series [2] was 1.2 ×10⁻⁶ cm/s. In addition, the IC50 was 40 nM in series [6], 40 nM in series [4] and 30 nM in series [5]. Also, the Papp B→A in series [3] stood at 7.5 ×10⁻⁶ cm/s.
Regarding `N#Cc1ncc(C(=O)NCc2ccccc2)cn1`, the midpoint of inhibition in series [6], the IC50, lay at 24000 nM.
The molecule `N#CCNC(=O)CNC(=O)[C@H](Cc1ccccc1)NC(=O)Cc1cccc(Cl)c1` showed a thermodynamic solubility in series [1] of 150 µM (≈ 61.9 µg/mL). In addition, the Papp A→B in series [2] worked out at 1.2 ×10⁻⁶ cm/s. Further, the Papp B→A in series [3] was 7.4 ×10⁻⁶ cm/s. Further, the IC50 in series [4] was 380 nM; in series [5] it was 280 nM.
Turning to `N#CCNC(=O)CNC(=O)[C@H](Cc1ccccc1)NC(=O)[C@@H](O)c1cccc(Cl)c1`, in series [2], the Papp A→B was determined as 2.2 ×10⁻⁶ cm/s. Moreover, the Papp B→A in series [3] turned out to be 3.2 ×10⁻⁶ cm/s. Besides, in series [4], the IC50 worked out at 70 nM.
In turn, `N#CCNC(=O)CNC(=O)[C@H](Cc1ccccc1)NC(=O)Cc1cc(Cl)cc(Cl)c1` returned a solubility (thermodynamic) in series [1] of 30 µM (≈ 13.4 µg/mL). The Papp A→B in series [2] is 1.2 ×10⁻⁶ cm/s. The Papp B→A in series [3] came to 8.1 ×10⁻⁶ cm/s. In addition, the IC50 in series [4] was determined as 70 nM; in series [5] it was 40 nM.
In the same order, the values of `N#CCNC(=O)CNC(=O)[C@H](CN)NC(=O)Cc1cc(Cl)cc(Cl)c1` are 891 µM (≈ 344 µg/mL), 1 ×10⁻⁶ cm/s, 1.2 ×10⁻⁶ cm/s, 80 nM and 40 nM.
`C[C@@H](O)[C@H](NC(=O)Cc1cc(Cl)cc(Cl)c1)C(=O)NCC(=O)NCC#N` gave a thermodynamic solubility in series [1] of 121 µM (≈ 48.6 µg/mL). Further, the IC50 in series [4] came out at 80 nM; in series [5], 30 nM.
For the molecule `CC(C)(C)[C@H](NC(=O)Cc1cc(Cl)cc(Cl)c1)C(=O)NCC(=O)NCC#N`, the thermodynamic solubility in series [1] came to 85 µM (≈ 35.1 µg/mL). In series [2], the Papp A→B turned out to be 5.4 ×10⁻⁶ cm/s. Moreover, the Papp B→A in series [3] was 23.8 ×10⁻⁶ cm/s. Also, the IC50 in series [4] came out at 80 nM; in series [5], 40 nM.
With `CC[C@H](C)[C@H](NC(=O)[C@@H](O)c1cc(Cl)cc(Cl)c1)C(=O)NCC(=O)NCC#N`, the Papp A→B in series [2] was 3 ×10⁻⁶ cm/s. In addition, the Papp B→A in series [3] was 28 ×10⁻⁶ cm/s. In addition, the IC50 in series [4] and in series [5] was 50 nM in each case.
Consider `CC[C@H](C(=O)N[C@H](C(=O)NCC(=O)NCC#N)[C@@H](C)O)c1cc(Cl)cc(Cl)c1`, for which, in series [1], the solubility (thermodynamic) turned out to be 1000 µM (≈ 429 µg/mL). Also, in series [2], the Papp A→B was 2.6 ×10⁻⁶ cm/s. The Papp B→A in series [3] was 18 ×10⁻⁶ cm/s. In addition, the values for the IC50 in series [4] and in series [5] were 30 nM and 5 nM, respectively.
In series [1], `CC[C@H](C)[C@H](NC(=O)C(c1cc(Cl)cc(Cl)c1)N(C)C)C(=O)NCc1ccnc(C#N)n1` (mixture of isomers) came in with a thermodynamic solubility of 61 µM. In series [2], the Papp A→B is 17.8 ×10⁻⁶ cm/s. In series [3], the Papp B→A is 10.1 ×10⁻⁶ cm/s. Further, the IC50 in series [4] was found to be 60 nM; in series [5], 20 nM. In the series with Human adenovirus 5, the EC50 was 6700 nM.
For `CC(C(=O)N[C@@H](Cc1ccccc1)C(=O)NCC(=O)NCC#N)c1cc(Cl)cc(Cl)c1` (mixture of isomers), the thermodynamic solubility in series [1] is 50 µM. Moreover, the values for the IC50 in series [4] and in series [5] were 30 nM and 6 nM, respectively.
On to `N#CCNC(=O)CNC(=O)C(Cc1ccccn1)NC(=O)Cc1cc(Cl)cc(Cl)c1` (racemic), for which, in series [1], the solubility (thermodynamic) was 111 µM (≈ 49.8 µg/mL). Besides, the Papp A→B in series [2] came to 0.7 ×10⁻⁶ cm/s. Moreover, the Papp B→A in series [3] turned out to be 15 ×10⁻⁶ cm/s. For the same molecule, the results for the IC50 in series [4] and in series [5] were 360 nM and 140 nM, respectively.
